According to the Kinase Knowledgebase extract (Sharma et al. 2016):
Values joined by “and” are separate entries in the source; they are usually repeats but may differ in a detail not shown here. Equal values may be shown once.

target: PIK3CD (Human) (UniProt O00329); test: Inhibition of PIK3CD Kinase Activity in Pfeiffer Cells
Sequence (O00329 whole entry, looked up): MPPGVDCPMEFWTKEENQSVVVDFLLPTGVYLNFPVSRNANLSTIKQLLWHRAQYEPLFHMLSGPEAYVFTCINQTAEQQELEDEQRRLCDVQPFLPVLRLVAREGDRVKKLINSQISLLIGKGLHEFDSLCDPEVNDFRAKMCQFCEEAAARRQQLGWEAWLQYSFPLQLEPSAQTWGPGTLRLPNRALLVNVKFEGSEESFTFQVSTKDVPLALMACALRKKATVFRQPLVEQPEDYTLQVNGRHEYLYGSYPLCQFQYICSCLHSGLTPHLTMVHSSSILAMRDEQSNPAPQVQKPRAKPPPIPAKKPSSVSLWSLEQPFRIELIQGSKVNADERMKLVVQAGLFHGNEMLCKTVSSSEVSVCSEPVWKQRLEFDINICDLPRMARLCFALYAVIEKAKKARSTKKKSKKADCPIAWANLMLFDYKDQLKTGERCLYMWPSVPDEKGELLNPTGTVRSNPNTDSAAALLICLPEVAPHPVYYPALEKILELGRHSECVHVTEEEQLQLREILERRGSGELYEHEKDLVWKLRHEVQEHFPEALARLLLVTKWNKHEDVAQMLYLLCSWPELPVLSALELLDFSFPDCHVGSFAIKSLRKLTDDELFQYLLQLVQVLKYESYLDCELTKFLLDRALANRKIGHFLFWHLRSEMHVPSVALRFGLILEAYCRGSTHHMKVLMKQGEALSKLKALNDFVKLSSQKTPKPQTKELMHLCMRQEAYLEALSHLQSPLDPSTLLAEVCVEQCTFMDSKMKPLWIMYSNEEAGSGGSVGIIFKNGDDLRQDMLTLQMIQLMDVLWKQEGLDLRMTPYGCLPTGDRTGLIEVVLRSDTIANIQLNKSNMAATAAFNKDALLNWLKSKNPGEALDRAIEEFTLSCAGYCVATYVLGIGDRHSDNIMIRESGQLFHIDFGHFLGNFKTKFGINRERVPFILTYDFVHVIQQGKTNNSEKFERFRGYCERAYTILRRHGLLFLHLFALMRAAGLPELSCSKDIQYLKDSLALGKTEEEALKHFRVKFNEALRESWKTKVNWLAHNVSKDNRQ

Compound | IC50
Cc1cccc2nc(C(C)Nc3ncnc4[nH]cnc34)c(-c3ccc(F)c(F)c3)c(=O)n12 (configuration not stated) | 500 to 1000 nM
Cc1csc2nc(C(C)Nc3ncnc4[nH]cnc34)c(-c3cc(F)cc(Cl)c3)c(=O)n12 (configuration not stated) | 50 to 100 nM
COc1cccc(-c2c(C(C)Nc3ncnc4[nH]cnc34)nc3cccc(C)n3c2=O)c1 (configuration not stated) | 50 to 100 nM
Cc1csc2nc(C(C)Nc3ncnc4[nH]cnc34)c(-c3cccc(Cl)c3)c(=O)n12 (configuration not stated) | 50 to 100 nM
Cc1csc2nc(C(C)Nc3ncnc4[nH]cnc34)c(-c3ccccc3F)c(=O)n12 (configuration not stated) | 50 to 100 nM
Cc1cccc2nc(C(C)Nc3ncnc4[nH]cnc34)c(-c3cccc(F)c3F)c(=O)n12 (configuration not stated) | 100 to 500 nM
Cc1cccc2nc(C(C)Nc3nc(N)nc4[nH]cnc34)c(-c3cccc(C#N)c3)c(=O)n12 (configuration not stated) | 100 to 500 nM
CCc1cccc2nc(C(C)Nc3nc(N)nc4[nH]cnc34)c(-c3cc(F)cc(F)c3)c(=O)n12 (configuration not stated) | < 50 nM
Cc1csc2nc(C(C)Nc3nc(N)nc4[nH]cnc34)c(-c3ccccc3Cl)c(=O)n12 (configuration not stated) | < 50 nM and 100 to 500 nM
Cc1csc2nc(C(C)Nc3ncnc4[nH]cnc34)c(-c3ccc(F)cc3)c(=O)n12 (configuration not stated) | 100 to 500 nM
CCC(Nc1ncnc2[nH]cnc12)c1nc2cccc(C)n2c(=O)c1-c1cccc(F)c1 (configuration not stated) | 100 to 500 nM
Cc1cccc2nc(C(C)Nc3nc(N)nc4[nH]cnc34)c(-c3ccccc3F)c(=O)n12 (configuration not stated) | 50 to 100 nM
Cc1cccc2nc(C(C)Nc3nc(N)nc4[nH]cnc34)c(-c3ccc(C#N)cc3)c(=O)n12 (configuration not stated) | 500 to 1000 nM
Cc1csc2nc(C(C)Nc3nc(N)nc4[nH]cnc34)c(-c3cccc(Cl)c3)c(=O)n12 (configuration not stated) | < 50 nM
Cc1cccc2nc(C(C)Nc3ncnc4[nH]cnc34)c(-c3ccccc3)c(=O)n12 (configuration not stated) | 50 to 100 nM
CCC(Nc1ncnc2[nH]cnc12)c1nc2cccc(C)n2c(=O)c1-c1cn[nH]c1 (configuration not stated) | 500 to 1000 nM
Cc1csc2nc(C(C)Nc3ncnc4[nH]cnc34)c(-c3cc(F)ccc3F)c(=O)n12 (configuration not stated) | 50 to 100 nM

Other lines, results leading:

IC50 | Compound
50 to 100 nM | Cc1cccc(-c2c(C(C)Nc3nc(N)nc4[nH]cnc34)nc3cccc(C)n3c2=O)c1 (configuration not stated)
50 to 100 nM | Cc1csc2nc(C(C)Nc3ncnc4[nH]cnc34)c(-c3cscn3)c(=O)n12 (configuration not stated)
100 to 500 nM and < 50 nM | Cc1csc2nc(C(C)Nc3ncnc4[nH]cnc34)c(-c3ccccc3Cl)c(=O)n12 (configuration not stated)
50 to 100 nM | Cc1csc2nc(C(C)Nc3nc(F)nc4[nH]cnc34)c(-c3cc(F)cc(F)c3)c(=O)n12 (configuration not stated)
50 to 100 nM | Cc1cccc2nc(C(C)Nc3nc(N)nc4[nH]cnc34)c(-c3cccc(Cl)c3)c(=O)n12 (configuration not stated)
50 to 100 nM | Cc1cccc2nc(C(C)Nc3ncnc4[nH]cnc34)c(-c3ccccc3Cl)c(=O)n12 (configuration not stated)
< 50 nM | Cc1csc2nc(C(C)Nc3nc(N)nc4[nH]cnc34)c(-c3cc(F)cc(F)c3)c(=O)n12 (configuration not stated)
100 to 500 nM | CCc1cccc2nc(C(C)Nc3ncnc4[nH]cnc34)c(-c3ccc(F)cc3)c(=O)n12 (configuration not stated)
100 to 500 nM | Cc1cccc2nc(C(C)Nc3ncnc4[nH]cnc34)c(-c3ccccc3F)c(=O)n12 (configuration not stated)
100 to 500 nM | Cc1csc2nc(C(C)Nc3ncnc4[nH]cnc34)c(-c3cc(F)cc(F)c3)c(=O)n12 (configuration not stated)
50 to 100 nM | Cc1cccc2nc(C(C)Nc3ncnc4[nH]cnc34)c(-c3cc(F)ccc3F)c(=O)n12 (configuration not stated)
< 50 nM | Cc1csc2nc(C(C)Nc3nc(N)nc4[nH]cnc34)c(-c3cc(F)cc(Cl)c3)c(=O)n12 (configuration not stated)
50 to 100 nM | Cc1csc2nc(C(C)Nc3ncnc4[nH]cnc34)c(-c3nccs3)c(=O)n12 (configuration not stated)
50 to 100 nM | Cc1ccc(-c2c(C(C)Nc3ncnc4[nH]cnc34)nc3cccc(C)n3c2=O)cc1 (configuration not stated)
50 to 100 nM | Cc1cccc2nc(C(C)Nc3ncnc4[nH]cnc34)c(-c3cccc(Cl)c3)c(=O)n12 (configuration not stated)
50 to 100 nM | Cc1cccc2nc(C(C)Nc3ncnc4[nH]cnc34)c(-c3cc(F)cc(F)c3)c(=O)n12 (configuration not stated)

target: PIK3CD (Human) (UniProt O00329); test: Inhibition of PIK3CD Kinase Activity (Scintillation Proximity Assay)

Compound | IC50
Cc1cccc2nc(C(C)Nc3ncnc4[nH]cnc34)c(-c3cccc(C#N)c3)c(=O)n12 (configuration not stated) | 100 to 500 nM
Cc1csc2nc(C(C)Nc3nc(N)nc4[nH]cnc34)c(-c3ccccc3Cl)c(=O)n12 (configuration not stated) | 100 to 500 nM and < 50 nM
Cc1ccccc1-c1c(C(C)Nc2ncnc3[nH]cnc23)nc2cccc(C)n2c1=O (configuration not stated) | 100 to 500 nM
Cc1csc2nc(C(C)Nc3ncnc4[nH]cnc34)c(-c3cccc(F)c3F)c(=O)n12 (configuration not stated) | 50 to 100 nM
CC(Nc1nc(N)nc2[nH]cnc12)c1nc2sccn2c(=O)c1-c1ccccc1 (configuration not stated) | 100 to 500 nM
CCC(Nc1ncnc2[nH]cnc12)c1nc2cccc(C)n2c(=O)c1-c1ccccc1 (configuration not stated) | < 50 nM

Further lines, results first:

IC50 | Compound
100 to 500 nM | Cc1ccc(-c2c(C(C)Nc3ncnc4[nH]cnc34)nc3scc(C)n3c2=O)cc1 (configuration not stated)
100 to 500 nM | Cc1cccc(-c2c(C(C)Nc3ncnc4[nH]cnc34)nc3cccc(C)n3c2=O)c1 (configuration not stated)
< 50 nM | Cc1cccc2nc(C(C)Nc3nc(N)nc4[nH]cnc34)c(-c3cccc(F)c3)c(=O)n12 (configuration not stated)
100 to 500 nM and < 50 nM | Cc1csc2nc(C(C)Nc3ncnc4[nH]cnc34)c(-c3ccccc3Cl)c(=O)n12 (configuration not stated)
< 50 nM | Cc1csc2nc(C(C)Nc3nc(N)nc4[nH]cnc34)c(-c3cccc(F)c3F)c(=O)n12 (configuration not stated)
< 50 nM | Cc1cccc2nc(C(C)Nc3nc(N)nc4[nH]cnc34)c(-c3ccccc3)c(=O)n12 (configuration not stated)
< 50 nM | Cc1csc2nc(C(C)Nc3ncnc4[nH]cnc34)c(-c3ccccc3)c(=O)n12 (configuration not stated)
< 50 nM | Cc1csc2nc(C(C)Nc3nc(N)nc4[nH]cnc34)c(-c3cc(F)cc(F)c3)c(=O)n12 (configuration not stated)
50 to 100 nM | CC(Nc1ncnc2[nH]cnc12)c1nc2scc(C(F)(F)F)n2c(=O)c1-c1cccc(F)c1 (configuration not stated)
< 50 nM | Cc1csc2nc(C(C)Nc3ncnc4[nH]cnc34)c(-c3cc(F)cc(F)c3)c(=O)n12 (configuration not stated)
50 to 100 nM | CCC(Nc1ncnc2[nH]cnc12)c1nc2cccc(C)n2c(=O)c1-c1cc(F)cc(F)c1 (configuration not stated)
50 to 100 nM | Cc1csc2nc(C(C)Nc3nc(N)nc4[nH]cnc34)c(-c3cncc(F)c3)c(=O)n12 (configuration not stated)
100 to 500 nM | CC(Nc1nc(N)nc2[nH]cnc12)c1nc2ccccn2c(=O)c1-c1cc(F)cc(F)c1 (configuration not stated)
< 50 nM | Cc1csc2nc(C(C)Nc3nc(N)nc4[nH]cnc34)c(-c3ccccc3F)c(=O)n12 (configuration not stated)
< 50 nM | Cc1cccc2nc(C(C)Nc3ncnc4[nH]cnc34)c(-c3cccc(F)c3)c(=O)n12 (configuration not stated)
100 to 500 nM | Cc1csc2nc(C(C)Nc3ncnc4[nH]ccc34)c(-c3cc(F)cc(F)c3)c(=O)n12 (configuration not stated)
100 to 500 nM | CCc1cccc2nc(C(C)Nc3ncnc4[nH]cnc34)c(-c3cc(F)cc(F)c3)c(=O)n12 (configuration not stated)
< 50 nM | Cc1cccc2nc(C(C)Nc3nc(N)nc4[nH]cnc34)c(-c3ccccc3Cl)c(=O)n12 (configuration not stated)
100 to 500 nM | Cc1csc2nc(C(C)Nc3ncnc4[nH]cnc34)c(-c3cncc(F)c3)c(=O)n12 (configuration not stated)

target: PIK3CD (Human) (UniProt O00329); test: Inhibition of PIK3CD Kinase Activity (AlphaScreen Assay)

Compound | IC50 [nM]
CCC(Nc1ncnc2[nH]cnc12)c1nc2cccc(C)n2c(=O)c1-c1cccnc1F (configuration not stated) | 100 to 500
Cc1csc2nc(C(C)Nc3nc(N)nc4[nH]cnc34)c(-c3cccc(F)c3)c(=O)n12 (configuration not stated) | < 50
Cc1csc2nc(C(C)Nc3nc(N)nc4[nH]cnc34)c(-c3ccccc3)c(=O)n12 (configuration not stated) | < 50
Cc1csc2nc(C(C)Nc3ncnc4[nH]cnc34)c(-c3ccccn3)c(=O)n12 (configuration not stated) | 50 to 100
Cc1cccc2nc(C(C)n3cnc4c(N)ncnc43)c(-c3ccccc3)c(=O)n12 (configuration not stated) | 100 to 500

Now from value to compound:

IC50 [nM] | Compound
100 to 500 | CCC(Nc1ncnc2[nH]cnc12)c1nc2cccc(C)n2c(=O)c1-c1cncc(F)c1 (configuration not stated)
< 50 | Cc1csc2nc(C(C)Nc3nc(N)nc4[nH]cnc34)c(-c3cc(F)cc(F)c3)c(=O)n12 (configuration not stated)
< 50 | Cc1csc2nc(C(C)Nc3ncnc4[nH]cnc34)c(-c3cc(F)cc(F)c3)c(=O)n12 (configuration not stated)

target: PIK3CD (Human) (UniProt O00329); test: Inhibition of PIK3CD Kinase Activity

Compound | IC50 [nM]
Cc1csc2nc(C(C)Nc3ncnc4[nH]cnc34)c(-c3cc(F)cc(F)c3)c(=O)n12 (configuration not stated) | < 50
